Source: article PMC9823097, “Dysregulation of PRMT5 in chronic lymphocytic leukemia promotes progression with high risk of Richter’s transformation” (Nature Communications, 2023)
“And” between values parts separate entries of the source, which are not always exact repeats. Equal entries are not always repeated.

Legend:
PRMT5 in Mec-1 cell line = experiment: Cas9-mediated doxycycline-inducible knockout of PRMT5, Mec-1 proliferation; type: cell-based; settings: +doxy
Excerpt: Proteins extracted from whole-cell lysates were resolved by SDS-PAGE and transferred on nitrocellulose membrane as previously described. CpG685 oligonucleotide was obtained from the OSU Cytogenetics Core Lab. Antibodies used for immunoblots included anti-human PRMT5 (Abcam #ab109451), GAPDH (Millipore Sigma #MAB374), SDMA (Cell Signaling Technology #13222), c-Myc (Cell Signaling Technology #5605S), and β-Actin (Cell Signaling Technology #4967S). Cas9-mediated doxycycline-inducible knockout of PRMT5 utilized a targeted sgRNA (guide sequence: […], PAM: GGG).

HG3 cells = experiment: Cell growth curves over 12 days, HG3; type: cell-based; settings: for anti-proliferative potency compared to PRT382: HG3
Description: (§1) Live cells/mL were counted on days 3, 6, 10, and 12. […] The split factor was calculated at indicated time points by dividing the counted cells/mL by 3E5. Cell growth was extrapolated over time by multiplying the subsequent cell count by the previous split factor. Cell growth is plotted as fold change relative to DMSO-treated cells.

Mec-1 cells = experiment: Cell growth curves over 12 days, Mec-1; type: cell-based; settings: for anti-proliferative potency compared to PRT382: Mec-1
Description: as §1

[1] = test system: BRD4 occupancy at the PRMT5 locus; experiment: ChIP-seq of H3K27Ac and BRD4 binding at the PRMT5 locus; type: cell-based; settings: vehicle, CpG, or PLX51107 treatment
[2] = test system: PRMT5 expression in CLL cells; experiment: PRMT5 mRNA and protein expression in CpG-stimulated CLL cells upon BRD4 inhibition; type: cell-based, human

`C[C@H]1c2cccc(O)c2C(O)=C2C(=O)[C@]3(O)C(O)=C(C(N)=O)C(=O)[C@@H](N(C)C)[C@@H]3[C@@H](O)[C@@H]21` [+doxy] was tested, and the “Rep. 1 Live cells/mL” value (PRMT5 in Mec-1 cell line; 1 days treated) was 170000 cells/mL, the “Rep. 2 Live cells/mL” value (PRMT5 in Mec-1 cell line; 1 days treated) was 158000 cells/mL and the “Rep. 1 Live cells/mL” value (PRMT5 in Mec-1 cell line; 2 days treated) was 387000 cells/mL. For the same compound, the “Rep. 2 Live cells/mL” value (PRMT5 in Mec-1 cell line; 2 days treated) was 352000 cells/mL, the “Rep. 1 Live cells/mL” value (PRMT5 in Mec-1 cell line; 3 days treated) was 686000 cells/mL and the “Rep. 2 Live cells/mL” value (PRMT5 in Mec-1 cell line; 3 days treated) was 721000 cells/mL. For the same compound, the “Rep. 1 Live cells/mL” value (PRMT5 in Mec-1 cell line; 4 days treated) was 991000 cells/mL, the “Rep. 2 Live cells/mL” value (PRMT5 in Mec-1 cell line; 4 days treated) was 944000 cells/mL and the “Rep. 1 Live cells/mL” value (PRMT5 in Mec-1 cell line; 5 days treated) was 827000 cells/mL. For the same compound, the “Rep. 2 Live cells/mL” value (PRMT5 in Mec-1 cell line; 5 days treated) was 862000 cells/mL, the “Rep. 1 Live cells/mL” value (PRMT5 in Mec-1 cell line; 6 days treated) was 1180000 cells/mL and the “Rep. 2 Live cells/mL” value (PRMT5 in Mec-1 cell line; 6 days treated) was 1280000 cells/mL.
With `Nc1ncnc2c1ccn2C1OC(C(O)c2ccc(Cl)c(F)c2)C(O)C1O` (stereo not shown) [PF-06855800] the “Rep 1 Live Cells [Fold Change]” value (HG3 cells; HG3, 1 nM, day 0) was 1 Fold Change, the “Rep 2 Live Cells [Fold Change]” value (HG3 cells; HG3, 1 nM, day 0) was 1 Fold Change and the “Rep 1 Live Cells [Fold Change]” value (HG3 cells; HG3, 1 nM, day 3) was 3.4 Fold Change. For the same compound, the “Rep 2 Live Cells [Fold Change]” value (HG3 cells; HG3, 1 nM, day 3) was 6.6 Fold Change, the “Rep 1 Live Cells [Fold Change]” value (HG3 cells; HG3, 1 nM, day 6) was 16.32 Fold Change and the “Rep 2 Live Cells [Fold Change]” value (HG3 cells; HG3, 1 nM, day 6) was 45.98 Fold Change. The “Rep 1 Live Cells [Fold Change]” value (HG3 cells; HG3, 1 nM, day 10) was 137.904 Fold Change, the “Rep 2 Live Cells [Fold Change]” value (HG3 cells; HG3, 1 nM, day 10) was 282.777 Fold Change and the “Rep 1 Live Cells [Fold Change]” value (HG3 cells; HG3, 1 nM, day 12) was 482.664 Fold Change. For the same compound, the “Rep 2 Live Cells [Fold Change]” value (HG3 cells; HG3, 1 nM, day 12) was 1404.46 Fold Change, the “Rep 1 Live Cells [Fold Change]” value (HG3 cells; HG3, 10 nM, day 0) was 1 Fold Change and the “Rep 2 Live Cells [Fold Change]” value (HG3 cells; HG3, 10 nM, day 0) was 1 Fold Change. The “Rep 1 Live Cells [Fold Change]” value (HG3 cells; HG3, 10 nM, day 3) was 3.27 Fold Change, the “Rep 2 Live Cells [Fold Change]” value (HG3 cells; HG3, 10 nM, day 3) was 4.767 Fold Change and the “Rep 1 Live Cells [Fold Change]” value (HG3 cells; HG3, 10 nM, day 6) was 11.445 Fold Change. For the same compound, the “Rep 2 Live Cells [Fold Change]” value (HG3 cells; HG3, 10 nM, day 6) was 11.6783 Fold Change, the “Rep 1 Live Cells [Fold Change]” value (HG3 cells; HG3, 10 nM, day 10) was 19.7426 Fold Change and the “Rep 2 Live Cells [Fold Change]” value (HG3 cells; HG3, 10 nM, day 10) was 14.8315 Fold Change. The “Rep 1 Live Cells [Fold Change]” value (HG3 cells; HG3, 10 nM, day 12) was 31.5074 Fold Change, the “Rep 2 Live Cells [Fold Change]” value (HG3 cells; HG3, 10 nM, day 12) was 21.021 Fold Change and the “Rep 1 Live Cells [Fold Change]” value (HG3 cells; HG3, 100 nM, day 0) was 1 Fold Change. The “Rep 2 Live Cells [Fold Change]” value (HG3 cells; HG3, 100 nM, day 0) was 1 Fold Change, the “Rep 1 Live Cells [Fold Change]” value (HG3 cells; HG3, 100 nM, day 3) was 3.157 Fold Change and the “Rep 2 Live Cells [Fold Change]” value (HG3 cells; HG3, 100 nM, day 3) was 5.133 Fold Change. The “Rep 1 Live Cells [Fold Change]” value (HG3 cells; HG3, 100 nM, day 6) was 5.956 Fold Change, the “Rep 2 Live Cells [Fold Change]” value (HG3 cells; HG3, 100 nM, day 6) was 6.365 Fold Change and the “Rep 1 Live Cells [Fold Change]” value (HG3 cells; HG3, 100 nM, day 10) was 4.824 Fold Change. For the same compound, the “Rep 2 Live Cells [Fold Change]” value (HG3 cells; HG3, 100 nM, day 10) was 6.047 Fold Change, the “Rep 1 Live Cells [Fold Change]” value (HG3 cells; HG3, 100 nM, day 12) was 3.339 Fold Change and the “Rep 2 Live Cells [Fold Change]” value (HG3 cells; HG3, 100 nM, day 12) was 4.755 Fold Change. The “Rep 1 Live Cells [Fold Change]” value (HG3 cells; HG3, 1 µM, day 0) was 1 Fold Change, the “Rep 2 Live Cells [Fold Change]” value (HG3 cells; HG3, 1 µM, day 0) was 1 Fold Change and the “Rep 1 Live Cells [Fold Change]” value (HG3 cells; HG3, 1 µM, day 3) was 3.733 Fold Change. For the same compound, the “Rep 2 Live Cells [Fold Change]” value (HG3 cells; HG3, 1 µM, day 3) was 5.933 Fold Change, the “Rep 1 Live Cells [Fold Change]” value (HG3 cells; HG3, 1 µM, day 6) was 6.21 Fold Change and the “Rep 2 Live Cells [Fold Change]” value (HG3 cells; HG3, 1 µM, day 6) was 5.993 Fold Change. For the same compound, the “Rep 1 Live Cells [Fold Change]” value (HG3 cells; HG3, 1 µM, day 10) was 3.912 Fold Change, the “Rep 2 Live Cells [Fold Change]” value (HG3 cells; HG3, 1 µM, day 10) was 5.304 Fold Change and the “Rep 1 Live Cells [Fold Change]” value (HG3 cells; HG3, 1 µM, day 12) was 2.641 Fold Change. The “Rep 2 Live Cells [Fold Change]” value (HG3 cells; HG3, 1 µM, day 12) was 3.878 Fold Change, the “anti-proliferative potency compared to PRT382” value (HG3 cells; high doses (1µM)) was “similar” and the “anti-proliferative potency compared to PRT382” value (HG3 cells; lower doses (10nM, 100nM)) was “more potent”. For the same compound, the “Rep 1 Live Cells [Fold Change]” value (Mec-1 cells; Mec-1, 1 nM, day 0) was 1 Fold Change, the “Rep 2 Live Cells [Fold Change]” value (Mec-1 cells; Mec-1, 1 nM, day 0) was 1 Fold Change and the “Rep 1 Live Cells [Fold Change]” value (Mec-1 cells; Mec-1, 1 nM, day 3) was 5.6 Fold Change. For the same compound, the “Rep 2 Live Cells [Fold Change]” value (Mec-1 cells; Mec-1, 1 nM, day 3) was 6.6 Fold Change, the “Rep 1 Live Cells [Fold Change]” value (Mec-1 cells; Mec-1, 1 nM, day 6) was 24.6 Fold Change and the “Rep 2 Live Cells [Fold Change]” value (Mec-1 cells; Mec-1, 1 nM, day 6) was 45.98 Fold Change. For the same compound, the “Rep 1 Live Cells [Fold Change]” value (Mec-1 cells; Mec-1, 1 nM, day 10) was 216 Fold Change, the “Rep 2 Live Cells [Fold Change]” value (Mec-1 cells; Mec-1, 1 nM, day 10) was 282.777 Fold Change and the “Rep 1 Live Cells [Fold Change]” value (Mec-1 cells; Mec-1, 1 nM, day 12) was 1400 Fold Change. The “Rep 2 Live Cells [Fold Change]” value (Mec-1 cells; Mec-1, 1 nM, day 12) was 1404.46 Fold Change, the “Rep 1 Live Cells [Fold Change]” value (Mec-1 cells; Mec-1, 10 nM, day 0) was 1 Fold Change and the “Rep 2 Live Cells [Fold Change]” value (Mec-1 cells; Mec-1, 10 nM, day 0) was 1 Fold Change. For the same compound, the “Rep 1 Live Cells [Fold Change]” value (Mec-1 cells; Mec-1, 10 nM, day 3) was 4.77 Fold Change, the “Rep 2 Live Cells [Fold Change]” value (Mec-1 cells; Mec-1, 10 nM, day 3) was 4.767 Fold Change and the “Rep 1 Live Cells [Fold Change]” value (Mec-1 cells; Mec-1, 10 nM, day 6) was 9.22 Fold Change. The “Rep 2 Live Cells [Fold Change]” value (Mec-1 cells; Mec-1, 10 nM, day 6) was 11.6783 Fold Change, the “Rep 1 Live Cells [Fold Change]” value (Mec-1 cells; Mec-1, 10 nM, day 10) was 14.1 Fold Change and the “Rep 2 Live Cells [Fold Change]” value (Mec-1 cells; Mec-1, 10 nM, day 10) was 14.8315 Fold Change. The “Rep 1 Live Cells [Fold Change]” value (Mec-1 cells; Mec-1, 10 nM, day 12) was 6.51 Fold Change, the “Rep 2 Live Cells [Fold Change]” value (Mec-1 cells; Mec-1, 10 nM, day 12) was 21.021 Fold Change and the “Rep 1 Live Cells [Fold Change]” value (Mec-1 cells; Mec-1, 100 nM, day 0) was 1 Fold Change. The “Rep 2 Live Cells [Fold Change]” value (Mec-1 cells; Mec-1, 100 nM, day 0) was 1 Fold Change, the “Rep 1 Live Cells [Fold Change]” value (Mec-1 cells; Mec-1, 100 nM, day 3) was 4.7 Fold Change and the “Rep 2 Live Cells [Fold Change]” value (Mec-1 cells; Mec-1, 100 nM, day 3) was 5.133 Fold Change. The “Rep 1 Live Cells [Fold Change]” value (Mec-1 cells; Mec-1, 100 nM, day 6) was 7 Fold Change, the “Rep 2 Live Cells [Fold Change]” value (Mec-1 cells; Mec-1, 100 nM, day 6) was 6.365 Fold Change and the “Rep 1 Live Cells [Fold Change]” value (Mec-1 cells; Mec-1, 100 nM, day 10) was 3.48 Fold Change. The “Rep 2 Live Cells [Fold Change]” value (Mec-1 cells; Mec-1, 100 nM, day 10) was 6.047 Fold Change, the “Rep 1 Live Cells [Fold Change]” value (Mec-1 cells; Mec-1, 100 nM, day 12) was 1.18 Fold Change and the “Rep 2 Live Cells [Fold Change]” value (Mec-1 cells; Mec-1, 100 nM, day 12) was 4.755 Fold Change. For the same compound, the “Rep 1 Live Cells [Fold Change]” value (Mec-1 cells; Mec-1, 1 µM, day 0) was 1 Fold Change, the “Rep 2 Live Cells [Fold Change]” value (Mec-1 cells; Mec-1, 1 µM, day 0) was 1 Fold Change and the “Rep 1 Live Cells [Fold Change]” value (Mec-1 cells; Mec-1, 1 µM, day 3) was 3.93 Fold Change. The “Rep 2 Live Cells [Fold Change]” value (Mec-1 cells; Mec-1, 1 µM, day 3) was 5.933 Fold Change, the “Rep 1 Live Cells [Fold Change]” value (Mec-1 cells; Mec-1, 1 µM, day 6) was 5.81 Fold Change and the “Rep 2 Live Cells [Fold Change]” value (Mec-1 cells; Mec-1, 1 µM, day 6) was 5.993 Fold Change. For the same compound, the “Rep 1 Live Cells [Fold Change]” value (Mec-1 cells; Mec-1, 1 µM, day 10) was 3.37 Fold Change, the “Rep 2 Live Cells [Fold Change]” value (Mec-1 cells; Mec-1, 1 µM, day 10) was 5.304 Fold Change and the “Rep 1 Live Cells [Fold Change]” value (Mec-1 cells; Mec-1, 1 µM, day 12) was 1.63 Fold Change. The “Rep 2 Live Cells [Fold Change]” value (Mec-1 cells; Mec-1, 1 µM, day 12) was 3.878 Fold Change, the “anti-proliferative potency compared to PRT382” value (Mec-1 cells; high doses (1µM)) was “similar” and the “anti-proliferative potency compared to PRT382” value (Mec-1 cells; lower doses (10nM, 100nM)) was “more potent”.
With `Cc1noc(C)c1-c1cnc2c(-c3ccc(C(=O)O)cc3)cn([C@@H](C)c3ccccn3)c2c1` [PLX51107] the “BRD4 occupancy at the PRMT5 locus enhancer” value [1] was “lost”, the PRMT5 protein expression ([2]; 72h 10µM PLX51107, CLL cells stimulated with 21.7 µg/mL CpG, n=5 patients) was “Reduced” and the “PRMT5 mRNA expression” value ([2]; 72h 10µM PLX51107, CLL cells stimulated with 21.7 µg/mL CpG, n=8 patients) was “Reduced”. The “PRMT5 Relative Expression (2-ΔCt)” value ([2]; individual samples, Supplemental Figure 7C) was 1.507 and 1.2928 and 1.349 and 0.5743 and 1.232 and 0.9553 and 1.659 and 0.935.
